In patent publication US9290515B2, “Cephem derivative having catechol group” (SHIONOGI & CO., LTD., priority 2011, dated 2016):

Experiments:
Type in all cases: cell-based
P. aeruginosa SR24 = test: MIC by broth microdilution (CLSI), P. aeruginosa SR24; conditions: Pseudomonas aeruginosa; P. aeruginosa SR24, Ceftazidime-sensitive strain; 10000 cfu/well; cation-adjusted Mueller Hinton broth with 20 μM human apo-transferrin; read-out: minimum growth inhibition concentration (MIC)
Method: (§1) Measurement of a minimum growth inhibition concentration (MIC: μg/mL) was performed according to CLSI (Clinical and Laboratory Standards Institute) method, by broth microdilution method, using an inoculation microbe amount of 10000 cfu/well and cation-adjusted Mueller Hinton broth containing human-derived 20 μM apo-transferrin as a test medium.

[1] = system: K. pneumoniae ATCC 700603_SHV18; test: MIC by broth microdilution (CLSI), K. pneumoniae ATCC 700603; conditions: Klebsiella pneumoniae, ATCC700603; K. pneumoniae ATCC 700603, SHV-18, ESBL producing strain; 10000 cfu/well; cation-adjusted Mueller Hinton broth with 20 μM human apo-transferrin; read-out: minimum growth inhibition concentration (MIC)
Method: as §1

[2] = system: P. aeruginosa SR27001(MDRP, IMP-1+); test: MIC by broth microdilution (CLSI), P. aeruginosa SR27001; conditions: Pseudomonas aeruginosa; P. aeruginosa SR27001, MDRP, IMP-1, MBL producing carbapenem-resistant strain; 10000 cfu/well; cation-adjusted Mueller Hinton broth with 20 μM human apo-transferrin; read-out: minimum growth inhibition concentration (MIC)
Method: as §1

[3] = system: P. aeruginosa SR27060(metallo); test: MIC by broth microdilution (CLSI), P. aeruginosa SR27060; conditions: Pseudomonas aeruginosa; P. aeruginosa SR27060, IMP-1, MBL producing carbapenem-resistant strain; 10000 cfu/well; cation-adjusted Mueller Hinton broth with 20 μM human apo-transferrin; read-out: minimum growth inhibition concentration (MIC)
Method: as §1

[4] = system: S. maltophilia SR21970(L-1); test: MIC by broth microdilution (CLSI), S. maltophilia SR21970; conditions: Stenotrophomonas maltophilia; S. maltophilia SR21970, L-1, MBL producing carbapenem-resistant strain; 10000 cfu/well; cation-adjusted Mueller Hinton broth with 20 μM human apo-transferrin; read-out: minimum growth inhibition concentration (MIC)
Method: as §1

A. baumannii SR24396 = test: MIC by broth microdilution (CLSI), A. baumannii SR24396; conditions: Acinetobacter baumannii, 10000 cfu/well, cation-adjusted Mueller Hinton broth with 20 μM human apo-transferrin, read-out: minimum growth inhibition concentration (MIC)
Method: as §1

[5] = system: E. coli ATCC BAA-196_TEM-10; test: MIC by broth microdilution (CLSI), E. coli ATCC BAA-196; conditions: Escherichia coli, ATCCBAA196; E. coli ATCC BAA-196, TEM-10, ESBL producing strain; 10000 cfu/well; cation-adjusted Mueller Hinton broth with 20 μM human apo-transferrin; read-out: minimum growth inhibition concentration (MIC)
Method: as §1

SMILES | MIC (P. aeruginosa SR24) | MIC [1] | MIC [2] | MIC [3] | MIC [4] | MIC (A. baumannii SR24396) | MIC [5]
C[N+]1(CC2=C(C(=O)[O-])N3C(=O)[C@@H](NC(=O)/C(=N\O[C@H](C(=O)[O-])c4ccc(O)c(O)c4)c4csc(N)n4)[C@H]3SC2)CCCC1.[Na+] [Comparative Example compound 1, reference compound] | 8 µg/mL | 16 µg/mL | > 32 µg/mL | > 32 µg/mL | > 32 µg/mL | 4 µg/mL | 16 µg/mL
Nc1nc(/C(=N/O[C@H](C(=O)[O-])c2ccc(O)c(O)c2)C(=O)N[C@@H]2C(=O)N3C(C(=O)[O-])=C(C[N+]45CCC(CC4)CC5)CS[C@H]23)cs1.[Na+] [Comparative Example compound 2, reference compound] | 8 µg/mL | 16 µg/mL | > 32 µg/mL | > 32 µg/mL | > 32 µg/mL | 16 µg/mL | 32 µg/mL
Nc1nc(/C(=N/OC(CNC(=O)c2ccc(O)c(O)c2Cl)C(=O)[O-])C(=O)N[C@@H]2C(=O)N3C(C(=O)[O-])=C(C[n+]4cccc5c4CCC5)CS[C@H]23)cs1.[Na+] (stereo partly shown) [Compound I-13] | 0.125 µg/mL | 0.5 µg/mL | 2 µg/mL | 2 µg/mL | > 32 µg/mL | 0.063 µg/mL | 1 µg/mL
Nc1nc(/C(=N/OC(CNC(=O)c2ccc(O)c(O)c2Cl)C(=O)[O-])C(=O)N[C@@H]2C(=O)N3C(C(=O)[O-])=C(C[N+]45CCC(CC4)CC5)CS[C@H]23)cs1.[Na+] (stereo partly shown) [Compound I-9] | 0.125 µg/mL | 0.125 µg/mL | 2 µg/mL | 1 µg/mL | 1 µg/mL | 0.063 µg/mL | 0.5 µg/mL
Nc1nc(/C(=N/OC[C@H](NC(=O)c2ccc(O)c(O)c2Cl)C(=O)[O-])C(=O)N[C@@H]2C(=O)N3C(C(=O)[O-])=C(C[N+]45CCC(CC4)CC5)CS[C@H]23)cs1.[Na+] [Compound I-23] | 0.125 µg/mL | 8 µg/mL | – | 0.5 µg/mL | 8 µg/mL | 0.25 µg/mL | 1 µg/mL
